Data: patent US10093696B2, “Nitric oxide donating carnosine compounds” (NICOX SCIENCE IRELAND, priority 2014, dated 2018)

Assays:
[1] = test system: hypertonic saline-induced IOP increase in rabbits; assay: Intraocular pressure (IOP) lowering activity in hypertonic saline-induced IOP increase in rabbits; assay type: in vivo, New Zealand White rabbits; conditions: for IOP reduction after single application (in words): compared to ISMN and timolol; for IOP change 60 minutes / IOP change 120 minutes / IOP change 240 minutes: single topical application
Procedure: The present study evaluated the intraocular pressure lowering effect of single applications of two compounds of the inventions (compound (1a) and compound (4a)) and two reference compounds at the same concentrations and in rabbits with induced IOP increase.
Adult male New Zealand White rabbits weighting 1.8-2.0 Kg were used in the experiments.
The transient increase in IOP was induced by the injection of 0.1 ml of hypertonic saline solution (5%) into the vitreous bilaterally (Krauss et al., 2011, Orihashi et al., 2005).
(§1) IOP was measured using a Tono-Pen XL prior to hypertonic saline injection (basal) and at 30, 60, 120 and 240 min thereafter. Vehicle (5% cremophor-EL; 0.3% DMSO; 0.2 mg/ml Benzalkonium chloride in PBS pH 6.0) or compound (1.0%) was instilled as eye drops immediately after hypertonic saline injection. Eyes were randomly assigned to different treatment groups. Vehicle and compounds were directly instilled into the conjunctiva pocket at the desired doses. One drop of 0.4% oxybuprocaine hydrochloride (Novesine, Sandoz) was instilled in each eye immediately before each set of pressure measurements.
Results are reported in Table 1 and they are expressed as IOP change (at 60, 120 and 240 minutes following topical administration) versus vehicle and versus IOP at basal before hypertonic saline injection.
Hypertonic Saline-Induced IOP Increase Rabbit Model
as §1, with “compound (9)” for “compound”, “compound (9)” for “compounds”
Experimental data are reported in Table 3 and they are expressed as IOP change (at 60, 120 and 240 minutes following topical administration) versus vehicle and versus IOP at basal before hypertonic saline injection
The hypotensive effects of compound (9) and of ISMN and timolol were evaluated using the same transient ocular hypertensive rabbit model, see Example 9, but in different groups of hypertensive rabbits.

[2] = test system: ocular normotensive rabbits; assay: Intraocular pressure (IOP) lowering activity in ocular normotensive New Zealand White rabbits; assay type: in vivo, New Zealand White (NZW) rabbits; conditions: 1% eye drops; for duration of IOP reduction after single application (in words): compared to the reference compound; for IOP change 60 minutes / IOP change 120 minutes / IOP change 180 minutes / IOP change 240 minutes / IOP change 30 minutes / IOP change 300 minutes: single topical application
Procedure: The present study evaluated the long lasting intraocular pressure lowering effect of single application of two compounds of the inventions (compound (1a) and compound (4a)) with respect to a prior art compound, in an ocular normotensive animal model (rabbit) at the same concentrations.
Adult male New Zealand White (NZW) rabbits weighting 1.8-2.0 Kg were used in the experiments.
(§2) IOP was measured using a pneumatonometer 30 CLASSIC™ before topical application (basal) and at different time points (30, 60, 120, 240 and 300 min) thereafter. Vehicle (5% cremophor-EL; 0.3% DMSO; 0.2 mg/ml bac in PBS pH 6.0) or compound of the invention were instilled as eye drops into the conjunctiva pocket. Eyes were randomly assigned to different treatment groups. One drop of 0.4% oxybuprocaine hydrochloride (Novesine, Sandoz) was instilled in each eye immediately before each set of pressure measurements. Results are reported in Table 2 and they are expressed as IOP change (at 60, 120, 180 and 240 minutes following topical administration) versus vehicle and versus IOP at basal.
Ocular Normotensive Rabbit Model
as §2, with “(9) (1%)” for “of the invention”, “measurements.” for “measurements. Results are reported in Table 2 and they are expressed as IOP change (at 60, 120, 180 and 240 minutes following topical administration) versus vehicle and versus IOP at basal.”
Experimental data are reported in Table 4 and they are expressed as IOP change (at 60, 120, 180 and 240 minutes following topical administration) versus vehicle and versus IOP at basal.
The IOP-lowering effects of compound (9) and of the Reference compound were assessed in the same normotensive rabbit model, see Example 10, but using different groups of […] rabbits.

[3] = Table 1, conc. 1% eye drops, versus vehicle and versus basal IOP
[4] = Table 2, versus vehicle and versus basal IOP
[5] = Table 3, 1% eye drops, versus vehicle and basal, references from different groups of rabbits (Example 9)
[6] = Table 4, versus vehicle and basal, reference from different groups of rabbits (Example 10)

Question: COC(=O)[C@H](Cc1c[nH]cn1)NC(=O)CCNC(=O)CCCCO[N+](=O)[O-].Cl [Compound (1a), (S)-methyl-3-(1H-imidazol-4-yl)-2-(3-(5-(nitrooxy)pentanamido)propanamido)propanoate hydrochloride] was tested. Which “IOP reduction after single application (in words)” value ([1]; 1% eye drops) did it give?
Answer: The value was “significant IOP reduction”.

Question: What about the “IOP change 60 minutes” value [1, 3] of the same compound?
Answer: Its value is −11.4 ± 0.8 mmHg.

Question: And the “IOP change 120 minutes” value [1, 3]?
Answer: The value was −12.9 ± 0.4 mmHg.

Question: And the “IOP change 240 minutes” value [1, 3]?
Answer: Its value is −7.4 ± 0.5 mmHg.

Question: What about the “duration of IOP reduction after single application (in words)” value (from here on “duration of IOP reduction”) [2] of the same compound?
Answer: The value was “significantly longer IOP reduction”.

Question: And the “IOP change 60 minutes” value [2, 4]?
Answer: Its value is −1.2 ± 1.0 mmHg.

Question: And the “IOP change 120 minutes” value [2, 4]?
Answer: Its value is −1.5 ± 0.9 mmHg.

Question: And the “IOP change 180 minutes” value [2, 4]?
Answer: Its value is −1.9 ± 0.9 mmHg.

Question: What about the “IOP change 240 minutes” value [2, 4] of the same compound?
Answer: The value was −1.7 ± 1.2 mmHg.

Question: For O=C(CCCCCO[N+](=O)[O-])NCCC(=O)N[C@@H](Cc1c[nH]cn1)C(=O)O [Compound (4a), (S)-3-(1H-imidazol-4-yl)-2-(3-(6-(nitrooxy)hexanamido)propanamido) propanoic acid 2,2,2-trifluoroacetate], which “IOP reduction after single application (in words)” value ([1]; 1% eye drops) is on record?
Answer: Its value is “significant IOP reduction”.

Question: What about the “IOP change 60 minutes” value [1, 3] of the same compound?
Answer: Its value is −7.6 ± 1.6 mmHg.

Question: What about the “IOP change 120 minutes” value [1, 3] of the same compound?
Answer: Its value is −9.0 ± 1.2 mmHg.

Question: What about the “IOP change 240 minutes” value [1, 3] of the same compound?
Answer: Its value is −5.3 ± 0.6 mmHg.

Question: And the “duration of IOP reduction” value [2]?
Answer: The value was “significantly longer IOP reduction”.

Question: What about the “IOP change 60 minutes” value [2, 4] of the same compound?
Answer: Its value is −1.6 ± 0.4 mmHg.

Question: And the “IOP change 120 minutes” value [2, 4]?
Answer: Its value is −1.5 ± 0.6 mmHg.

Question: What about the “IOP change 180 minutes” value [2, 4] of the same compound?
Answer: Its value is −1.4 ± 0.6 mmHg.

Question: And the “IOP change 240 minutes” value [2, 4]?
Answer: The value was −0.9 ± 0.6 mmHg.

Question: For COC(=O)[C@H](Cc1c[nH]cn1)NC(=O)CCNC(=O)CCC[C@@H](CO[N+](=O)[O-])O[N+](=O)[O-] [Compound (9), (S)-methyl 2-(3-((S)-5,6-bis(nitrooxy)hexanamido)propanamido)-3-(1H-imidazol-4-yl)propanoate], which “IOP reduction after single application (in words)” value ([1]; 1% eye drops) is on record?
Answer: The value was “significant IOP reduction”.

Question: What about the “IOP change 60 minutes” value [1, 5] of the same compound?
Answer: The value was −7.2 ± 1.0 mmHg.

Question: What about the “IOP change 120 minutes” value [1, 5] of the same compound?
Answer: Its value is −6.4 ± 1.0 mmHg.

Question: And the “IOP change 240 minutes” value [1, 5]?
Answer: Its value is −3.9 ± 0.9 mmHg.

Question: And the “duration of IOP reduction” value [2]?
Answer: The value was “long lasting IOP-lowering effect”.

Question: What about the “IOP change 30 minutes” value [2, 6] of the same compound?
Answer: Its value is −1.6 ± 0.2 mmHg.

Question: And the “IOP change 60 minutes” value [2, 6]?
Answer: The value was −1.0 ± 0.4 mmHg.

Question: What about the “IOP change 120 minutes” value [2, 6] of the same compound?
Answer: Its value is −1.3 ± 0.2 mmHg.

Question: And the “IOP change 180 minutes” value [2, 6]?
Answer: Its value is −1.3 ± 0.3 mmHg.

Question: And the “IOP change 240 minutes” value [2, 6]?
Answer: Its value is −1.5 ± 0.4 mmHg.

Question: What about the “IOP change 300 minutes” value [2, 6] of the same compound?
Answer: The value was −1.5 ± 0.4 mmHg.

Question: For O=[N+]([O-])O[C@@H]1CO[C@H]2[C@@H]1OC[C@@H]2O [ISMN, Isosorbide mononitrate, reference compound], which “IOP change 60 minutes” value [1, 3] is on record?
Answer: The value was −0.7 ± 2.9 mmHg.

Question: And the “IOP change 120 minutes” value [1, 3]?
Answer: Its value is −6.6 ± 1.8 mmHg.

Question: And the “IOP change 240 minutes” value [1, 3]?
Answer: The value was −1.2 ± 1.3 mmHg.

Question: And the “IOP change 60 minutes” value [1, 5]?
Answer: Its value is −0.7 ± 2.9 mmHg.

Question: What about the “IOP change 120 minutes” value [1, 5] of the same compound?
Answer: Its value is −6.6 ± 1.8 mmHg.

Question: What about the “IOP change 240 minutes” value [1, 5] of the same compound?
Answer: Its value is −1.2 ± 1.3 mmHg.

Question: Which “IOP change 60 minutes” value [2, 4] does the source give for NCCC(=O)N[C@@H](Cc1c[nH]cn1)C(=O)NC[C@H](CO[N+](=O)[O-])O[N+](=O)[O-].O=C(O)C(F)(F)F [Ref. compound, (R)-3-((S)-2-(3-aminopropanamido)-3-(1H-imidazol-4-yl)propanamido)propane-1,2-diyl dinitrate 2,2,2-trifluoroacetate, reference compound] here?
Answer: The value was −0.8 ± 0.6 mmHg.

Question: What about the “IOP change 120 minutes” value [2, 4] of the same compound?
Answer: Its value is −0.3 ± 0.4 mmHg.

Question: And the “IOP change 180 minutes” value [2, 4]?
Answer: The value was −0.2 ± 0.4 mmHg.

Question: What about the “IOP change 240 minutes” value [2, 4] of the same compound?
Answer: Its value is −0.05 ± 0.6 mmHg.

Question: What about the “IOP change 30 minutes” value [2, 6] of the same compound?
Answer: Its value is −1.0 ± 0.5 mmHg.

Question: And the “IOP change 60 minutes” value [2, 6]?
Answer: The value was −0.8 ± 0.6 mmHg.

Question: And the “IOP change 120 minutes” value [2, 6]?
Answer: The value was −0.3 ± 0.4 mmHg.

Question: What about the “IOP change 180 minutes” value [2, 6] of the same compound?
Answer: Its value is −0.2 ± 0.4 mmHg.

Question: And the “IOP change 240 minutes” value [2, 6]?
Answer: Its value is −0.05 ± 0.6 mmHg.

Question: And the “IOP change 300 minutes” value [2, 6]?
Answer: The value was −0.7 ± 0.4 mmHg.

Question: CC(C)(C)NC[C@H](O)COc1nsnc1N1CCOCC1 [Timolol, reference compound] was tested. Which “IOP change 60 minutes” value [1, 3] did it give?
Answer: Its value is −5.7 ± 1.4 mmHg.

Question: And the “IOP change 120 minutes” value [1, 3]?
Answer: Its value is −8.4 ± 1.2 mmHg.

Question: And the “IOP change 240 minutes” value [1, 3]?
Answer: The value was 0.2 ± 1.2 mmHg.

Question: What about the “IOP change 60 minutes” value [1, 5] of the same compound?
Answer: The value was −5.7 ± 1.4 mmHg.

Question: What about the “IOP change 120 minutes” value [1, 5] of the same compound?
Answer: The value was −8.4 ± 1.2 mmHg.

Question: And the “IOP change 240 minutes” value [1, 5]?
Answer: Its value is 0.2 ± 1.2 mmHg.
